pIC50: −log10 of the molar value. Positions of bridges follow the written chain, without caps; N, C: chain ends. Non-standard residues stand in square brackets, D forms with d. Residues, ends and D or L forms follow the SMILES beside them. Phe(4-OC2H4NH2,2,3-(CH2)3) = NCCOc1ccc(C[C@H](N)C(=O)O)c2c1CCC2; Trp(7-Me) = Cc1cccc2c(C[C@H](N)C(=O)O)c[nH]c12; 2Nal = N[C@@H](Cc1ccc2ccccc2c1)C(=O)O; 3Pal = N[C@@H](Cc1cccnc1)C(=O)O; Pen = CC(C)(S)[C@H](N)C(=O)O; Thp = NC1(C(=O)O)CCOCC1; Sar = CNCC(=O)O
Key:
[1] = molecular target: T1, IL-23α/IL-12β and IL-23R (Homo sapiens, UniProt Q5VWK5); test: IL-23α/IL-12β and IL-23R binding assay (TR-FRET/HTRF); conditions: inhibition of the binding of IL-23α/IL-12β to IL-23R, TR-FRET; both proteins 0.3 nM
T1 construct: purchased ACRO ILR-H82F3 (IL-23R); ILB-H52W5 (IL-23α/IL-12β)
T1 sequence (Q5VWK5 24-353 limits assumed): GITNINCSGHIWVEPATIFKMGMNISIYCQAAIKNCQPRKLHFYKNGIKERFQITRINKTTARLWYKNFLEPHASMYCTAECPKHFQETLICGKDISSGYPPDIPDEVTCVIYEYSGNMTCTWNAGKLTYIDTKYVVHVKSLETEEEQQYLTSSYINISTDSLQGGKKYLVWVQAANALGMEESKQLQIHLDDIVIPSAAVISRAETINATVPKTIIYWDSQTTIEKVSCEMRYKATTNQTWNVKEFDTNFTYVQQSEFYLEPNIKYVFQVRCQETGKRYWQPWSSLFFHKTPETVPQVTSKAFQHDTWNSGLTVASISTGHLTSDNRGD
Summary of the method: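 TR-FRET with IL-23α/IL-12β and IL-23R each at 0.3 nM in PPI buffer; compound preincubated with IL-23α/IL-12β 60 min at 25°C, then IL-23R and Tb/d2 detection reagents added for 60 min. HTRF 665/620 ratio; IC50 by nonlinear regression.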

[2] = Test of stability in plasma, human; type: in vitro ADME; conditions: read-out: Residual rate% at 37°C for 6 h
Protocol: (§1) 5. Test of stability in plasma
(§2) In this experiment, plasmas of five species, including human, monkey, dog, rat, and mouse, were used to evaluate the stability in plasma of Compound 7.
(§3) A plasma sample was prepared at a concentration level of 1000 ng/mL, and dispensed into EP tubes at time points 0 h and 6 h. Acetonitrile solution containing an internal standard was added directly to the 0 h sample; and the 6 h sample was placed at 37°C for the corresponding time, and then added with an acetonitrile solution containing internal standard. The concentration of the test compound in the sample was measured by the LC-MS/MS method, and the residual rate was calculated from the ratio of the peak areas of the test compound to the internal standard in the time point sample and the 0 h sample.
(§4) Experimental results: At the concentration level of 1000 ng/mL under the test conditions, the residual rates of the test Compounds were shown in Table 6 below. Table 6. Residual rate% at 37°C for 6 h

[3] = Test of stability in plasma, rat; type: in vitro ADME; conditions: read-out: Residual rate% at 37°C for 6 h
Protocol: as §1, §2, §3, §4

[4] = Test of stability in plasma, mouse; type: in vitro ADME; conditions: read-out: Residual rate% at 37°C for 6 h
Protocol: as §1, §2, §3, §4

[5] = Test of stability in gastrointestinal fluid: simulated gastric fluid (pepsin); type: in vitro ADME; conditions: 0.5 mg/ml, 37°C
Protocol: (§5) 6. Test of stability in gastrointestinal fluid
1.1. Preparation of dilute hydrochloric acid: 23.4 ml of hydrochloric acid was diluted with water to 1000 ml.
1.2. Preparation of simulated gastric fluid: 1.64 ml of dilute hydrochloric acid and 1 g of pepsin were added to about 80 ml of water. After being shaken well, the mixture was diluted with water to 100 ml.
(§6) About 12.5 mg of the sample was added to a 25 ml volumetric flask and dissolved in the simulated gastric fluid (or simulated intestinal fluid), and the mixture was diluted to the mark.
(§7) Instrument model: Agilent 1260 Infinity; mobile phase A: 10 mmol/L K2HPO4, and mobile phase B: acetonitrile; column: Phenomenex Gemini^@ 3 um C18 110Å 150 * 4.6 mm; wavelength: 224 nm; column temperature: 30°C; sample tray temperature: 37°C; injection time: 35 min; injection volume: 10 ul; injection mode: gradient injection; and gradient method. Table 7. Gradient mobile phase
(§8) Sampling and testing: Firstly, the blank solution (simulated gastric fluid or simulated intestinal fluid) was tested. Then, the prepared sample (newly prepared for use) was placed in the injection tray for immediate injection. Then, a needle of sample was injected at 4.5 h, 9.5 h, and 18 h, respectively.
(§9) Table 8. Stability in gastrointestinal fluid

[6] = Test of stability in gastrointestinal fluid: simulated intestinal fluid (trypsin, pH 6.8); type: in vitro ADME; conditions: 0.5 mg/ml, 37°C
Protocol: as §5
1.3. Preparation of 0.1 mol/L NaOH: 0.4 g of NaOH was dissolved in 100 ml of water.
1.4. Preparation of simulated intestinal fluid: 0.68 g of potassium dihydrogen phosphate was dissolved in 50 ml of water, and the pH value was adjusted to 6.8 with 0.1 mol/L sodium hydroxide solution. 1 g of trypsin was dissolved in an appropriate amount of water. After the two solutions were mixed, the mixture was diluted with water to 1000 ml.
as §6, §7, §8, §9

`CC(=O)NCCCC[C@@H]1NC(=O)[C@H](Cc2c[nH]c3c(C)cccc23)NC(=O)[C@H]([C@@H](C)O)NC(=O)[C@H](Cc2c[nH]cn2)NC(=O)[C@@H](NC(C)=O)C(C)(C)SSC(C)(C)[C@@H](C(=O)N[C@@H](Cc2ccc(OCCN)c3c2CCC3)C(=O)N[C@@H](Cc2ccc3ccccc3c2)C(=O)NC2(C(=O)N[C@@H](CCC(=O)O)C(=O)N[C@@H](CC(N)=O)C(=O)N[C@@H](Cc3cccnc3)C(=O)N(C)CC(N)=O)CCOCC2)NC1=O` [Compound 7] (Ac-[Pen]HT[Trp(7-Me)]K(Ac)[Pen][Phe(4-OC2H4NH2,2,3-(CH2)3)][2Nal][Thp]EN[3Pal][Sar]-NH2; disulfide 1-6) showed a pIC50 [1] of 10.27, a remaining at 6 h, 1000 ng/mL [2] of over 99% and a remaining at 6 h, 1000 ng/mL [3] of 98.3%. The remaining at 6 h, 1000 ng/mL [4] was over 99%, the Peak area% ([5]; 0 h) was 95.281% and the Peak area% ([5]; 4.5 h) was 94.678%. It also gave a Peak area% ([5]; 9.5 h) of 96.304%, a Peak area% ([5]; 18 h) of 93.661% and a Peak area% ([6]; 0 h) of 94.095%. The Peak area% ([6]; 4.5 h) was 93.552%, the Peak area% ([6]; 9.5 h) was 93.575% and the Peak area% ([6]; 18 h) was 94.831%.

From patent publication EP4729529A1, “PREPARATION OF PEPTIDE INHIBITOR OF INTERLEUKIN-23 RECEPTOR AND USE THEREOF” (Xizang Haisco Pharmaceutical Co., Ltd., priority 2023, dated 2024)
